# Measurements reported in patent US6221637A, “Xanthene derivatives, their production and use” (Takeda Chemical Industries, Ltd., priority 1996, dated 2001).
# What was measured:
# binding of B7-1 to CD28 = target: T1, binding of B7-1 to CD28 (Homo sapiens, UniProt P10747+P33681); assay: Binding inhibition test using soluble B7-1-Ig; details: 10 μg/ml soluble B7-1-Ig; fixed CD28-expressing CHO cells; 30 minutes at room temperature; read-out: IC50 (concentration for 50% inhibition of binding) (converted)
# T1 construct: ligating the Fc region of human IgG to the C-terminal side of the extracellular region of B7-1; Fc region of human IgG (from plasmid pTB1455); expressed in transfected cells; soluble B7-1-Ig made in house by sB7-1-Ig-CHO-20 and purified from its supernatant
# Method: b) Expression of CD28 in CHO cells
# Using petri dishes 10 cm in diameter, 1×10^5 dihydrofolate reductase deficient (DHFR^-) CHO cells were cultured in an αMEM medium containing 10% fetal bovine serum for 24 hours. To these cells, the CD28cDNA expression plasmid pAKKO-CD28as obtained in Reference Example 1 (10 μg) was introduced by the calcium phosphate method. Forty-eight hours later, the medium was replaced with an αMEM medium (no nucleic acid contained) containing 10% dialyzed fetal bovine serum, and cells incorporating the plasmid in their chromosome were selected. For these selected cells, CD28 expression was examined by flow cytometry (EPICS ELITE, COULTER), and cells showing high expression of CD28were obtained. These cells were cloned by the limiting dilution method to obtain CD28-CHO-11, a cell line that stably expresses high amount of CD28. […]
# c) Establishment of CHO cells that produce soluble B7-1-Ig
# Using petri dishes 10 cm in diameter, 1×10^5 dihydrofolate reductase deficient (DHFR^31 ) CHO cells were cultured in an αMEM medium containing 10% fetal bovine serum for 24 hours. To these cells, 10 μg of the expression plasmid encoding soluble B7-1-Ig as obtained in Reference Example 22 was introduced by the calcium phosphate method. Forty-eight hours later, the medium was replaced with an αMEM medium (no nucleic acid contained) containing 10% dialyzed fetal bovine serum, and cells incorporating the plasmid into their chromosome were selected. For these selected cells, the amount of soluble B7-1-Ig produced in the culture supernatant was measured by EIA, and cells showing high productivity were obtained. These cells were cloned by the limiting dilution method to obtain sB7-1-Ig-CHO-20, a cell line that stably produces soluble B7-1-Ig. […]
# d) Preparation of soluble B7-1-Ig
# Using petri dishes 15 cm in diameter, the soluble B7-1-Ig-producing CHO cells obtained in term c) above (sB7-1-Ig-CHO-20) were cultured in an αMEM medium containing 10% fetal bovine serum to yield 5 l of culture supernatant. This culture supernatant was crudely purified using a protein G column (Chromatop Superprotein G, […] I.D.×10 cm, NGK Insulators, Ltd.) and further purified by gel filtration chromatography (TSKgel G3000SW, […] I.D.×[…], Tosoh) to yield 20 mg of a purified standard preparation.
# Binding inhibition test using soluble B7-1-Ig
# The CHO cells that expressed CD28obtained in Example 122 were suspended in an αMEM medium (no nucleic acid contained) containing 10% dialyzed fetal bovine serum, seeded into 96-well microplates (flat bottom) to 3×10^4 cells/well, and cultured in the presence of 5% CO2 at 37° C. for 48 hours. The culture supernatant was removed by aspiration from each plate to which cells adhered, followed by the addition of phosphate buffer saline (PBS) containing 0.5% paraformaldehyde to fix the cells. After this plate was washed twice with PBS containing 10% Block Ace (Snow Brand Milk Products), 10 μg/ml soluble B7-1-Ig and a sample were added to each well. Binding reaction was carried out by keeping the plate standing at room temperature for 30 minutes. After the reaction, the plate was washed twice with PBS containing 10% Block Ace (Snow Brand Milk Products), followed by the addition of peroxidase-labeledanti-human IgG (Cappel) and 2 hours of reaction. The plate was further washed twice with PBS containing 10% Block Ace (Snow Brand Milk Products), after which 100 μl of a 0.1M citrate buffer containing 6.5 mg/ml ortho-phenylenediamine dihydrochloride (Wako Pure Chemical Industries) and 0.06% hydrogen peroxide was added to each well. Twenty minutes later, the coloring reaction was stopped with 2N sulfuric acid, and the absorbance at 492 nm was determined using a plate reader (BIO-RAD Model 1450).
# mice = assay: Toxicity test; assay type: in vivo; details: intraperitoneally, 400 mg/kg
# [1] = system: interleukin 2 (IL-2) production by human peripheral blood T cells; assay: Inhibition test for interleukin 2 (IL-2) production by human peripheral blood T cells; assay type: cell-based; details: anti-CD3 antibody coated plates; CHO cells expressing B7-1; 48 hours, 37° C.; read-out: IC50 value (concentration for 50% suppression of interleukin-2 production)
# Method: a) Expression of B7-1 in CHO cells
# Using petri dishes 10 cm in diameter, 1×10^5 Chinese hamster ovary (CHO) cells were cultured in an αMEM medium containing 10% fetal bovine serum for 24 hours. To these cells, the B7-1 cDNA expression plasmid pME-B7-1 as obtained in Reference Example 1 (10 μg) and the neomycin resistance expression plasmid pME-neo (1 μg) were introduced by the calcium phosphate method. Forty-eight hours later, GENETICIN (G418 sulfate, GIBCO) was added to a final concentration of 0.5 mg/ml, and cells that acquired neomycin resistance were selected. For these selected cells, B7-1 expression was examined by flow cytometry (EPICS ELITE, COULTER), and cells showing high expression of B7-1 were obtained. These cells were cloned by the limiting dilution method to obtain B7-1-CHO-22, a cell line that stably expresses high amount of B7-1.
# Inhibition test for interleukin 2 (IL-2) production by human peripheral blood T cells
# Blood was collected from a healthy normal human, overlaid on lymphocyte separation medium (LSM, Organon Teknica Co.), and centrifuged at room temperature at 2,000 rpm for 20 minutes to obtain human peripheral blood mononuclear cells. […] The IL-2 produced in the culture supernatant was quantified using the HUMAN INTERLEUKIN-2 EIA KIT (Cayman Chemical Co.).
# T1 sequence (P10747 19-220): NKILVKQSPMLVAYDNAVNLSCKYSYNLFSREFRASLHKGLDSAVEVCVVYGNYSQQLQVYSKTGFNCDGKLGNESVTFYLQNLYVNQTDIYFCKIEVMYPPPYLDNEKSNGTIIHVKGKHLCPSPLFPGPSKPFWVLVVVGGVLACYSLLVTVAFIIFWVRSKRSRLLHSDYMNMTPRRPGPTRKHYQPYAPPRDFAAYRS
# T1 sequence (P33681 with tags, fused parts or gaps): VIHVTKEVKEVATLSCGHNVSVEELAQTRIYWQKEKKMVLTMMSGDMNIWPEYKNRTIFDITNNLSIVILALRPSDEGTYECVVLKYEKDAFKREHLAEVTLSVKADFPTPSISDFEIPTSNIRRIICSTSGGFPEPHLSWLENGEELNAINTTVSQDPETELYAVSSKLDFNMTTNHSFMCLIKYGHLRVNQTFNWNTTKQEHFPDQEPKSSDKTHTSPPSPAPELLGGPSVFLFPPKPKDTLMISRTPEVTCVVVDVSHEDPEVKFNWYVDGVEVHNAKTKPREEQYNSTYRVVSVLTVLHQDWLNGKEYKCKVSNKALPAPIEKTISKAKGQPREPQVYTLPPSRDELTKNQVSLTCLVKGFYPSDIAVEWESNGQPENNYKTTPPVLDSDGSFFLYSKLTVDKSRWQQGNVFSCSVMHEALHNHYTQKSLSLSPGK
SMILES,IC50 (binding of B7-1 to CD28),deaths after intraperitoneal administration (mice),IC50 [1]
COC(=O)c1c(SCC(=O)O)c(O)cc2oc3c(Cl)c(C)c(Cl)c(O)c3c(=O)c12 [Compound 1],305 nM,no animals died,10 µg/mL
"COC(=O)c1c([S+]([O-])CC(=O)O)c(O)cc2oc3c(Cl)c(C)c(Cl)c(O)c3c(=O)c12 (centres unmarked) [Compound 17, methyl 2-(carboxymethylsulfinyl)-5,7-dichloro-3,8-dihydroxy-6-methyl-9-oxo-9H-xanthene-1-carboxylate]",< 210 nM,,
CCC(=O)Oc1c(Cl)c(C)c(Cl)c2oc3cc(O)c(SCC(=O)O)c(C(=O)OC)c3c(=O)c12 [Compound 27],< 194 nM,,
COC(=O)c1c(SCC(=O)O)c(O)c(I)c2oc3c(Cl)c(C)c(Cl)c(O)c3c(=O)c12 [Compound 40],171 nM,,
"COC(=O)c1c([S+]([O-])CC(=O)O)c(O)c(I)c2oc3c(Cl)c(C)c(Cl)c(O)c3c(=O)c12 (centres unmarked) [Compound 54, methyl 2-(carboxymethylsulfinyl)-5,7-dichloro-3,8-dihydroxy-4-iodo-6-methyl-9-oxo-9H-xanthene-1-carboxylate]",< 166 nM,,
COC(=O)c1c(SCC(=O)O)c(O)c([N+](=O)[O-])c2oc3c(Cl)c(C)c(Cl)c(O)c3c(=O)c12 [Compound 132],238 nM,,
